In patent publication US6342481B1, “Oligopeptides derived from C-reactive protein fragments” (priority 1993, dated 2002):
Residues, ends and D or L forms follow the SMILES beside them.

Assays:
[1] = test system: Sprague Dawley rats injected with LPS (Salmonella Enteritidis); experiment: Survival of rats after intravenous LPS (septic shock test); type: in vivo, rat; details: male Sprague Dawley rats, LPS i.v. at dose giving about 30% survival, compound 3 μg/kg i.v. immediately after, monitored 7 days; control (LPS only) 23
Description: Male Sprague Dawley rats (175-200 g, Charles river, Calco, Italy) were intravenously injected with a dose of LPS (Salmonella Enteritidis, Sigma) in 0.2 ml of physiological solution, previously determined on the same batch of animals, as giving about 30% survival. Thereafter they were randomized into groups of at least 18 animals and each immediately inoculated intravenously with 3 μg/kg of some of the compounds representative of the invention. One group of animals was treated with LPS only and considered as the control. The animals were monitored for the following 7 days to determine their survival.

[2] = test system: Wistar rats with left coronary artery ligation; experiment: Cardioprotective activity following ischemia induced by occlusion of the left coronary artery in the anesthetized rat; type: in vivo; details: anesthetized male Wistar rats, 0.1 μg/kg/min i.v., left coronary artery ligated for 30 minutes
Excerpt: The cardiovascular activity of the compounds of the invention was investigated by means of a test aiming at evaluating the cardioprotective activity following ischemia induced by the occlusion of the left coronary artery in the anestethized rat, performed substantially as described by C. Clark et al. Journ. Exp. Methods, 3, 357, 1980. It is known that the occlusion of the coronary artery causes several events altering the ECG-pattern including, among others, hypoxia, arrhythmias, with eventual death of the laboratory animals.
In this test, male Wistar rats, (350-450 g, Charles River) were divided into groups of at least 18 animals, anestethized with nembutal (65 mg/kg i.p.) and each connected to an electrocardiograph for continuously monitoring the ECG. The animals, maintained under artificial ventilation, underwent thoracotomy and, after incision of the pericardium, a suture thread was passed around the left coronary artery, near to its origins. The animals were then administered intravenously with 0.1 μg/kg/min of the compounds of the invention dissolved in saline. One group of animals (control group) were administered intravenously with saline (5 ml/kg/hr). After 15 minutes recovery, and provided that electocardiographic alteration was not recorded, the left coronary artery was ligated and the ligature was maintained for 30 minutes. During this period the animals were monitored and ventricular tachycardia (VT), ventricular fibrillations (VF) and mortality were7 assessed.

Row | Compound | Survival percentage [1] [%] | Mortality % ([2]; control 29) [%] | Incidence % V.F. (ventricular fibrillations) ([2]; control 86) [%] | Incidence % V.T. (ventricular tachycardia) ([2]; control 100) [%]
1 | H-Gly-(Et)Lys-Pro-Arg-OH.2AcOH [Example 15] | 33 |  |  | 
2 | H-Gly-(Et)Lys-Pro-Lys-OH.AcOH [Example 14] | 48 |  |  | 
3 | N=C(N)NCCC[C@H](NC(=O)[C@@H]1CCCN1C(=O)[C@@H]1CCCN1C(=O)CN)C(=O)O [Example 11, H-Gly-Pro-Pro-Arg-OH.AcOH] (H-GPPR-OH) | 57 |  |  | 
4 | CC(C)CN(C(=O)CN)[C@@H](CCCCN)C(=O)N1CCC[C@H]1C(=O)O [Example 9, H-Gly-(isoBut)Lys-Pro-OH.AcOH] | 39 |  |  | 
5 | H-Gly-(Bzl)Lys-Pro-Arg-OH.2AcOH [Example 10] | 43 |  |  | 
6 | CCN[C@@H](CCCCN)C(=O)N1CCC[C@H]1C(=O)O [Example 12, H-(Et)Lys-Pro-OH.AcOH] | 44 | 12 | 75 | 10
